From PMC3666979, “Eliciting Renal Failure in Mosquitoes with a Small-Molecule Inhibitor of Inward-Rectifying Potassium Channels” (PLoS ONE, 2013)
Marks after values point to notes of the source that are not given here.

How the values were obtained:
AeKir1 [1] = target: T1, AeKir1 (Aedes aegypti, UniProt L0EQS9); experiment: Whole-cell patch clamp of AeKir1 expressed in T-REx-HEK-293 cells; type: cell-based; settings: for IC50: AeKir1-mediated currents, T-REx-HEK-293 cells
Protocol: T-REx-HEK293-AeKir1 cells were voltage clamped in the whole-cell configuration of the patch clamp technique after overnight induction with tetracycline (1 µg/ml). Patch electrodes were pulled from silanized 1.5 mm outer diameter borosilicate microhematocrit tubes using a Narishige PP-830 two-stage puller. Electrode resistance ranged from 2.5 to 3.5 MΩ when filled with the following intracellular solution (in mM): 135 KCl, 2 MgCl2, 1 EGTA, 10 HEPES free acid, 2 Na2ATP (Roche, Indianapolis, IN), pH 7.3, 275 mOsm. The standard bath solution contained (in mM): 135 NaCl, 5 KCl, 2 CaCl2, 1 MgCl2, 5 glucose, 10 HEPES free acid, pH 7.4, 290 mOsm. The high-K^+ bath contained (in mM): 90 NaCl, 50 KCl, 2 CaCl2, 1 MgCl2, 5 glucose, and 10 HEPES-free acid, pH 7.4, 290 mOsmol. Whole-cell currents were recorded under voltage-clamp conditions using an Axopatch 200B amplifier (Molecular Devices, Sunnyvale, CA). Electrical connections to the amplifier were made using Ag/AgCl wires and 3 M KCl/agar bridges. Electrophysiological data were collected at 5 kHz and filtered at 1 kHz. Data acquisition and analysis were performed using pClamp 9.2 software (Axon Instruments). After achieving stable whole-cell currents, VU573 or VU342 was applied intermittently or continuously for 2 to 10 min, followed by application of 2 mM BaCl2. All recordings were made at room temperature (20–23°C).

[2] = system: principal cells of isolated Malpighian tubules; experiment: Two-electrode voltage clamp of principal cells in isolated Malpighian tubules; type: cell-based, Aedes aegypti; settings: for Rpc (kΩ) / Vbl (mV): VU573 10 µM or barium 5 mM, means ± SEM
Protocol: The basolateral membrane voltage (Vbl) and input resistance (Rpc) of principal cells were measured in isolated Malpighian tubules using two-electrode voltage clamping, as described previously. In each experiment, a single principal cell near the distal (blind) end of the tubule was impaled with two glass microelectrodes: one measured Vbl and the other injected current (Im). The Rpc of the impaled cell was calculated from current-voltage plots that were generated via voltage clamping (see ref. [25] for details). After recording a steady-state Vbl and Rpc (control) from the impaled cell, either VU573 (10 µM) or BaCl2 (5 mM) was added to the peritubular bath. The resulting Vbl and Rpc (treatment) were measured again upon reaching a new steady-state (usually 1–2 min later).
(§1) Data were analyzed using Prism 5 for Windows (Graphpad Software) and Excel (Microsoft Corp). To compare the rates of fluid secretion among control, vehicle, VU573, and VU342 treatments, a one-way ANOVA was performed with a Newman-Keuls posttest. To compare the Vbl and Rpc values of principal cells between control and treatment periods a paired t-test was performed.

[3] = system: intact mosquitoes (Ae. aegypti); experiment: Urine excretion rate of intact mosquitoes after 900 nl HBS injection; type: in vivo, Aedes aegypti; settings: 2 h
Protocol: Urine excretion rates from intact mosquitoes (Ae. aegypti) were measured using a method modified from the laboratory of Hansen. After anesthetizing mosquitoes on ice they were injected as described above with 900 nl of fluid (100 nl/s). The injected fluid was one of two HEPES-buffered saline (HBS) solutions containing 1.8% DMSO with 0.77 mM VU573 or 0.77 mM VU342. Vehicle controls received the respective HBS with DMSO alone. The Na^+-HBS consisted of the following in mM: 146 NaCl, 4.2 N-methyl-D-glucammonium (NMDG)-Cl, and 25 mM HEPES (pH 7.5). The K^+-HBS consisted of the following in mM: 10 mM NaCl, 75 mM KCl, 65.2 mM NMDG-Cl, and 25 mM HEPES (pH 7.5). After injection, mosquitoes were placed immediately in a graduated, packed-cell volume tube (MidSci, St. Louis, MO; 3 mosquitoes per tube) at room temperature. The mosquitoes were removed from the tubes with forceps after 2 h and the excreted urine was centrifuged into the graduated column of the tube for measurement. Uninjected control mosquitoes were handled exactly as above without the injection step. Data were analyzed using Prism 5 for Windows (Graphpad Software). To generate a dose-response curve for VU573, the doses (x-axis) were log transformed and then a non-linear curve was fitted to the data using the ‘log(agonist) vs. response’ algorithm. An ED50 was calculated from this curve. To compare 1) the incapacitating effects among the vehicle, VU573, and VU342 treatments, and 2) the rates of urine excretion among the control, vehicle, VU573, and VU342 treatments, one-way ANOVAs were performed with Newman-Keuls posttests. To compare the incapacitating effects between the vehicle and VU573 within each mosquito species, a paired t-test was used.

[4] = system: isolated Malpighian tubules; experiment: Fluid secretion by isolated Malpighian tubules (Ramsay method); parameters: species or system Aedes aegypti; settings: 10 µM in peritubular bath, after 2 hours, high-potassium Ringer
Protocol: Fluid secretion rates from isolated Malpighian tubules (Ae. aegypti) were measured in vitro using the method described in [25], which is modified from that of Ramsay. In brief, isolated tubules were bathed in a 50 µl drop of a mosquito Ringer solution with elevated K^+ (see composition below), which was then covered with light mineral oil. A glass hook was used to pull the open proximal end of the tubule into the mineral oil where fluid was secreted. The diameter of the droplet was measured to calculate the secreted volumes.
In one set of tubules, the initial spontaneous rate of fluid secretion was calculated during the first 30 min (control). In another set of tubules, the rates of fluid secretion were determined 2 h after adding one of the following to the peritubular bath: the vehicle (0.05% DMSO), VU573 (10 µM), or VU342 (10 µM). The Ringer solution consisted of the following in mM: 119.4 NaCl, 34 KCl, 25 HEPES, 1.8 NaHCO3, 1.7 CaCl2, and 1.0 MgSO4, pH 7.1.
as §1

[5] = system: adult female mosquitoes (Aedes aegypti); experiment: Mosquito toxicology: incapacitation 24 h after intrathoracic injection (69 nl); type: in vivo; settings: for mosquitoes bloated (retained fluid) / % Incapacitated (flightless or dead): 69 nl of 10 mM in PBS/15% DMSO; for mosquitoes bloated (retained fluid): 24 h; for % Incapacitated (flightless or dead): within 24 hours
Protocol: (§2) Mosquitoes were first anesthetized on ice and then injected with 69 nl of fluid (see below) using a pulled-glass capillary attached to a nanoliter injector (Nanoject II, Drummond Scientific Company, Broomall, PA). The injected fluid was a sodium-based phosphate-buffered saline (Na^+-PBS) containing 15% DMSO and various concentrations of VU573 or VU342 to deliver the doses indicated in Figures 2A, 2C, and S3. The Na^+-PBS consisted of the following in mM: 137 NaCl, 2.7 KCl, 10 Na2HPO4, and 2 KH2PO4 (pH 7.5). After injection, the mosquitoes were placed in a small cage (10 females per cage) within a rearing chamber (28°C, 80% relative humidity, 12∶12 light∶dark) and allowed free access to a solution of 10% sucrose. The mosquitoes were observed 24 h after injection.
(§3) Data were analyzed using Prism 5 for Windows (Graphpad Software). To generate a dose-response curve for VU573, the doses (x-axis) were log transformed and then a non-linear curve was fitted to the data using the ‘log(agonist) vs. response’ algorithm. An ED50 was calculated from this curve. To compare 1) the incapacitating effects among the vehicle, VU573, and VU342 treatments, and 2) the rates of urine excretion among the control, vehicle, VU573, and VU342 treatments, one-way ANOVAs were performed with Newman-Keuls posttests. To compare the incapacitating effects between the vehicle and VU573 within each mosquito species, a paired t-test was used.

[6] = system: adult female mosquitoes (Ae. aegypti); experiment: Mosquito mortality after 900 nl Na+- or K+-PBS injection; type: in vivo, Aedes aegypti
Protocol: A similar approach was used to determine the toxicity of VU573 after a stress to hemolymph Na^+ or K^+ homeostasis (Figure 2F). However, in these experiments each mosquito was injected with 900 nl of fluid (100 nl/s) and the mosquitoes were not given access to sucrose. The injected fluid was a Na^+-PBS or K^+-PBS containing 1.1% DMSO and 0.77 mM of VU573. Vehicle controls received the respective PBS with DMSO alone. The K^+-PBS consisted of the following in mM: 2.7 NaCl, 137 KCl, 2 Na2HPO4, and 10 KH2PO4 (pH 7.5).

[7] = system: adult female Anopheles gambiae; experiment: Mosquito toxicology: incapacitation 24 h after injection (69 nl); type: in vivo; settings: 69 nl Na+-PBS with 10 mM
Protocol: as §2, §3
(§4) Supplementary file pone.0064905.s003.tif: Figure S3 Incapacitating effects of VU573 in three species of mosquitoes. Adult female mosquitoes were injected with Na^+- PBS (69 nl) containing the vehicle (15% DMSO) or VU573 (10 mM). ‘% Incapacitated’ refers to the proportion of mosquitoes that are flightless or dead within 24 h after injection. Values are means ± SEM (n = 4 independent trials of 10 mosquitoes). Statistical differences between vehicle and VU573-treated mosquitoes were determined by a paired t-test for each species. […]

[8] = system: adult female Aedes albopictus; experiment: as above; type: in vivo; settings: 69 nl Na+-PBS with 10 mM
Protocol: as §2, §3, §4

[9] = system: adult female Culex pipiens; experiment: as above; type: in vivo; settings: 69 nl Na+-PBS with 10 mM
Protocol: as §2, §3, §4

AeKir1 [10] = target: T1, AeKir1; experiment: Thallium (Tl+) flux assay of AeKir1 in T-REx-HEK-293 cells; type: cell-based; settings: AeKir1-mediated Tl+ flux, means ± SEM
Protocol: Compound master antagonist plates were created by serial diluting compounds 1∶3 from 30 mM stocks in 100% DMSO using the BRAVO liquid handler (Agilent Technologies, Santa Clara, CA). Assay daughter plates were created using the ECHO 555 liquid hander (Labcyte, Sunnyvale, CA), transferring 240 nl from the master plate to the daughter plate for each well followed by addition of 40 µl of assay buffer resulting in antagonist compound concentration response curves starting at 200 µM (2× final concentration). […] Cell plates and daughter compound plates were loaded onto a kinetic imaging plate reader (FDSS 6000; Hamamatsu Corporation, Bridgewater, NJ). […] Appropriate baseline readings were taken (10 images at 1 Hz; excitation, 470±20 nm; emission, 540±30 nm) and 20 µl test compounds were added followed by 50 images at 1 Hz additional baseline. Following a 20 minute incubation period, baseline readings were taken for 10 seconds followed by addition of 10 µl of Tl^+ stimulus buffer. […] Data were analyzed using Excel (Microsoft Corp, Redmond, WA). […] The slope of the fluorescence increase beginning 5 s after Tl^+ addition and ending 15 s after Tl^+ addition was calculated. […] Potencies were calculated from fits using a four parameter logistic equation.

[11] = 900 nl K+-HBS containing 0.77 mM compound
[12] = 900 nl Na+-HBS containing 0.77 mM compound
[13] = 10 µM peritubular, change vs control
[14] = dose-response experiment, 24 h after injection

T1 sequence (L0EQS9 entry or part of it): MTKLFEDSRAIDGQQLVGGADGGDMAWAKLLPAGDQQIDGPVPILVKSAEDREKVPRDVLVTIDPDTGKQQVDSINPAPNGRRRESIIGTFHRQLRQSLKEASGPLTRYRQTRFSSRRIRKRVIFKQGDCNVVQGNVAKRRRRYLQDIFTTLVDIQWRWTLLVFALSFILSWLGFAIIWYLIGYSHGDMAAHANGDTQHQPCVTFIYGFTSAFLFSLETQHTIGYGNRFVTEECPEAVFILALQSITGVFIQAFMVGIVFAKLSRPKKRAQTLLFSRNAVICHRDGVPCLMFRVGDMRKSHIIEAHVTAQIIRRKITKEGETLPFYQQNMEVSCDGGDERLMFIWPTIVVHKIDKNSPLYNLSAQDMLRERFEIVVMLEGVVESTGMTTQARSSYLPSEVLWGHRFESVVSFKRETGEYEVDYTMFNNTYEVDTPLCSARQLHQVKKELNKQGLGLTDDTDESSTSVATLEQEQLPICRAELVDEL

| SMILES | IC50 (AeKir1 [1]) | Rpc (kΩ) [2] | Vbl (mV) [2] | rate of urine excretion [3, 11] | rate of urine excretion [3, 12] | rate of fluid secretion [4] | mosquitoes bloated (retained fluid) [5] | % Incapacitated (flightless or dead) [5] | also measured |
| --- | --- | --- | --- | --- | --- | --- | --- | --- | --- |
| [Ba+2].[Cl-].[Cl-] [Barium, BaCl2, reference compound] | 10 µM | 322.8±31.0 ^d kΩ | −59.3±3.3 ^c mV |  |  |  |  |  |  |
| N=c1n(Cc2ccccc2)c2ccccc2n1CC(O)CN1CCOCC1 (centres unmarked) [VU342] | 112 ± 1.1 µM |  |  | unaffected | 5.7 nL/min | no effect on the rate of fluid secretion | none | less than 20% | times less potent than VU573 at inhibiting AeKir1 (AeKir1 [1]; ratio of IC50): 22 times; maximal inhibition of AeKir1 (AeKir1 [1]; requires 300 µM): ~65% |
| Cc1ccc(OCC(O)Cn2c(=N)n(Cc3ccccc3)c3ccccc32)cc1 (centres unmarked) [VU573] | 5.14 ± 1.2 µM | 255.3±15.4 ^a kΩ | −52.4±4.5 ^b mV | 0.73 nL/min | 2.14 nL/min | 0.26 nL/min | 10% | ~100% | mortality compared to vehicle ([6]; 900 nl K+-PBS with 0.77 mM): significantly increases mortality; mortality compared to vehicle ([6]; 900 nl Na+-PBS with 0.77 mM): does not significantly increase mortality; flightlessness ([6]; 900 nl Na+-PBS with 0.77 mM, within 24 hours): renders them flightless; incapacitating effect [7]: incapacitates these mosquitoes; incapacitating effect [8]: incapacitates these mosquitoes; incapacitating effect [9]: incapacitates these mosquitoes; IC50 (AeKir1 [10]): 15 µM; hyperpolarization of basolateral membrane voltage (Vbl) [2, 13]: 7.0 mV; increase of input resistance (Rpc) [2, 13]: 5.7 kΩ; proportion of incapacitated mosquitoes that were dead [5, 14]: 7.7%; proportion of incapacitated mosquitoes that were flightless [5, 14]: 92.3%; proportion of incapacitated mosquitoes with greatly distended abdomens (bloated) [5, 14]: 3.6%; ED50 (incapacitated: flightless or dead) ([5]; within 24 h after injection of 69 nl PBS/15% DMSO into hemolymph): 53.6 pmol |
